Experimental data as given in ChEMBL document CHEMBL1151328, “Novel cytotoxic acylated oligorhamnosides from Mezzettia leptopoda” (1998).
Converted amounts (≈) assume the structure as drawn. The source made the active and inactive calls. The calls are words filed in the database; no cut-off is given here.

What was measured:
KB [1] = experiment: Cytotoxicity against human drug-resistant KB cells in absence of vinblastine; format: functional; conditions: read-out: ED50 (the source's name)
[2] = Cytotoxicity against human BC1 cells; format: functional; conditions: read-out: ED50 (the source's name)
ASK = experiment: Antimitotic activity in rat ASK cells at 100 ug/mL; format: functional, cell-based
Lu1 = experiment: Cytotoxicity against human Lu1 cells; format: functional; conditions: read-out: ED50 (the source's name)
KB [3] = experiment: Cytotoxicity against human KB cells; format: functional; conditions: read-out: ED50 (the source's name)
LNCaP = experiment: Cytotoxicity against human LNCAP cells; format: functional; conditions: read-out: ED50 (the source's name)
Col2 = experiment: Cytotoxicity against human Col2 cells; format: functional; conditions: read-out: ED50 (the source's name)
KB [4] = experiment: Cytotoxicity against human drug-resistant KB cells in presence of 1 ug/mL vinblastine; format: functional; conditions: read-out: ED50 (the source's name)

Structure (SMILES) | EC50 (KB [1]) [µg/mL] | EC50 [2] [µg/mL] | Activity (ASK) | EC50 (Lu1) [µg/mL] | EC50 (KB [3]) [µg/mL] | EC50 (LNCaP) [µg/mL] | EC50 (Col2) [µg/mL] | EC50 (KB [4]) [µg/mL]
CCCCCCCCO[C@@H]1O[C@@H](C)[C@H](OC(=O)CCCCC)[C@@H](O[C@@H]2O[C@@H](C)[C@H](OC(C)=O)[C@@H](O[C@@H]3O[C@@H](C)[C@H](OC(C)=O)[C@@H](O)[C@H]3OC(C)=O)[C@H]2OC(C)=O)[C@H]1O [MEZZETTIASIDE 2] | > 20 | > 20 | inactive | 8.6 (≈ 10.3 µM) | 6.2 (≈ 7.43 µM) | > 20 | 4.3 (≈ 5.15 µM) | > 20
CCCCCCCCO[C@@H]1O[C@@H](C)[C@H](OC(=O)CCCCC)[C@@H](O[C@@H]2O[C@@H](C)[C@H](OC(C)=O)[C@@H](O[C@@H]3O[C@@H](C)[C@H](OC(C)=O)[C@@H](OC(C)=O)[C@H]3O)[C@H]2OC(C)=O)[C@H]1O [MEZZETTIASIDE 3] | > 20 | > 20 | inactive | 11.8 (≈ 14.1 µM) | 14.3 (≈ 17.1 µM) | > 20 | 4.9 (≈ 5.87 µM) | > 20
CCCCCCCCO[C@@H]1O[C@@H](C)[C@H](OC(=O)CCCCC)[C@@H](O[C@@H]2O[C@@H](C)[C@H](OC(C)=O)[C@@H](O[C@@H]3O[C@@H](C)[C@H](OC(C)=O)[C@@H](O)[C@H]3O)[C@H]2OC(C)=O)[C@H]1O [MEZZETTIASIDE 4] | > 20 | > 20 | inactive | 19.4 (≈ 24.5 µM) | 15.4 (≈ 19.4 µM) | > 20 | 6.2 (≈ 7.82 µM) | > 20
CCCCCCCCO[C@@H]1O[C@@H](C)[C@H](OC(=O)CCCCC)[C@@H](O[C@@H]2O[C@@H](C)[C@H](OC(C)=O)[C@@H](O[C@@H]3O[C@@H](C)[C@H](O)[C@@H](O)[C@H]3OC(C)=O)[C@H]2OC(C)=O)[C@H]1O [MEZZETTIASIDE 8] | > 20 | > 20 | inactive | 19.7 (≈ 24.8 µM) | > 20 | > 20 | 8.2 (≈ 10.3 µM) | > 20
CCCCCCCCO[C@@H]1O[C@@H](C)[C@H](OC(=O)CCCCC)[C@@H](O[C@@H]2O[C@@H](C)[C@H](O)[C@@H](OC(C)=O)[C@H]2OC(C)=O)[C@H]1O [MEZZETTIASIDE 9] | > 20 | > 20 | inactive | 5.4 (≈ 8.93 µM) | 11.3 (≈ 18.7 µM) | > 20 | > 20 | > 20
CCCCCCCCO[C@@H]1O[C@@H](C)[C@H](OC(=O)CCCCC)[C@@H](O[C@@H]2O[C@@H](C)[C@H](OC(C)=O)[C@@H](OC(C)=O)[C@H]2OC(C)=O)[C@H]1O [MEZZETTIASIDE 11] | > 20 | > 20 | inactive | 6.1 (≈ 9.43 µM) | 12.7 (≈ 19.6 µM) | > 20 | 9 (≈ 13.9 µM) | 5.6
CCCCCCCCO[C@@H]1O[C@@H](C)[C@H](OC(=O)CCCCC)[C@@H](O[C@@H]2O[C@@H](C)[C@H](OC(C)=O)[C@@H](O)[C@H]2OC(C)=O)[C@H]1O [MEZZETTIASIDEIDE 10] | > 20 | > 20 | inactive | > 20 | > 20 | > 20 | > 20 | > 20
